The target in experiment [1] is T1, dopamine D-2 receptor (Rattus norvegicus, UniProt P61169).
T1 construct: Homogenized rat caudate was the source of the D-2 receptors; from tissue; host or cells: rat caudate homogenate
The experiment can be described thus: D-2 receptor competitive binding, [3H]-spiroperidol, homogenized rat caudate. Conditions: rat caudate, [3H]-spiroperidol; read-out: D-2 Ki.

Experiment [2] deals with D-1 receptor. As to the kind of experiment: Adenylate cyclase assay (agonist activity, cAMP). Format: biochemical, goldfish retina or rat striatum.
For experiment [3], the system named is striatal dopamine receptors. As to the kind of experiment: animal or person. The following applies: Rattus norvegicus, sc, read-out: EC50, rotation behavior. In kind it is in vivo.
The target of experiment [4] is dopamine D-1 receptor (Rattus norvegicus, UniProt P18901). As to the kind of experiment: biochemical.
Chain of dopamine D-1 receptor (P18901 whole entry): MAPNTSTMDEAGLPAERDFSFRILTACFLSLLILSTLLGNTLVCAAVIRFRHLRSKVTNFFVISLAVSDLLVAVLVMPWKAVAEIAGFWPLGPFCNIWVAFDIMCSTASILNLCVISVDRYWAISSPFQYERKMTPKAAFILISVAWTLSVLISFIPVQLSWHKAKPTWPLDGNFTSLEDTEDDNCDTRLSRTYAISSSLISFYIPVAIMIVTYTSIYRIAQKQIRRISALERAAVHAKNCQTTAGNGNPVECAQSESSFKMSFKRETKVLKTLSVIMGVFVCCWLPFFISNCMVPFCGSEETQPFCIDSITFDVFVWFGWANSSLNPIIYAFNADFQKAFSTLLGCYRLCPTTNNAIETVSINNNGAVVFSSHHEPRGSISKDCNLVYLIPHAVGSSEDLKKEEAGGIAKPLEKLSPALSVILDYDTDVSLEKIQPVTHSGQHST
Where [5] appears, read: goldfish retina or rat striatum homogenate.

Entries after “also recorded” stand apart in the source; their conditions may differ. Counter-ions that a name gives are not always drawn. Like-named read-outs stand apart in the source and are kept apart here.

T1 sequence (P61169 whole entry): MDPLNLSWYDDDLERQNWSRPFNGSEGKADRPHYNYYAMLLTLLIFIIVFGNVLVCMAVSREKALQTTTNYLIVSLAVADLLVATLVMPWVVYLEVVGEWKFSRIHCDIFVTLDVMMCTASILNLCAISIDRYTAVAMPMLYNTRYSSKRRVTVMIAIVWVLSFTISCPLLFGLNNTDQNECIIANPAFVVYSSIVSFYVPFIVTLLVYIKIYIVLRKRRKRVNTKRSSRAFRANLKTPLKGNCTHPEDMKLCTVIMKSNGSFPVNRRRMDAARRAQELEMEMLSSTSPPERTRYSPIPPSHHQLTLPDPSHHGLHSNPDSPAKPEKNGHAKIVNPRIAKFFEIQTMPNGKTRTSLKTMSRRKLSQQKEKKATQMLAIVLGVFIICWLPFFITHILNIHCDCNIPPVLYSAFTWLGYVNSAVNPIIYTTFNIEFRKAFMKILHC

With `CCCc1cc2c(o1)CN[C@@H]1CCc3cc(O)c(O)cc3[C@@H]21` (relative stereo) [Example 41, trans-2-Propyl-4,5,5a,6,7,11b-hexahydro-3-oxa-5-aza-cyclopent-1-ena[c]phenanthrene-9,10-diol], the Ki in experiment [1] was 600 nM. In experiment [2], the EC50 was found to be 46 nM and the “Intrinsic Activity (%)” value was 87%. For the same compound, the ED50 in experiment [3] was 0.07 µmol/kg. The compound further had a Ki in experiment [4] of 21 nM.

As to `CC(C)(C)Cc1cc2c(s1)CN[C@H]1CCc3cc(O)c(O)cc3[C@H]21` (relative stereo) [Example 10, trans-2-(2,2-Dimethylpropyl)-4,5,5a,6,7,11b-hexahydro-3-thia-5-aza-cyclopent-1-ena[c]-phenanthrene-9,10-diol], the Ki in experiment [1] turned out to be 4600 nM; in experiment [4], 560 nM. Besides, the “Intrinsic Activity (%)” value in experiment [2] worked out at 50%. The concentration giving a half-maximal response (EC50) in experiment [2] (setting [5]) is 216 nM.

Take `CC(C)(C)c1cc2c(s1)CN[C@H]1CCc3cc(O)c(O)cc3[C@H]21` (single isomer, unassigned) [Example 24, (-)-trans-2-(1,1-Dimethylethyl)-4,5,5a,6,7,11b-hexahydro-3-thia-5-aza-cyclopent-1-ena[c]-phenanthrene-9,10-diol]: the ED50 in experiment [3] was found to be 0.04 µmol/kg.

As for “2-propyl-4,5,5a,6,7,11b-hexahydro-1-thia-5-aza-cyc! opent-2-ena[c]phenanthrene-10-ol hydrobromide [Example 44]”, the “agonist/antagonist properties at dopamine receptor” value in experiment [2] (hydrobromide) is given as “no agonist properties; also recorded: dopamine antagonist”.

As to `CCCc1nc2c(o1)CN[C@@H]1CCc3cc(O)c(O)cc3[C@@H]21` (relative stereo) [Example 53, trans-2-propyl-4,5,5a,6,7,11b-hexahydro-1,5-diaza-3-oxa-cyclopent-1-ena[c]phenanthrene-9,10-diol dihydrobromide], the Ki stood at 230 nM in experiment [1] and 154 nM in experiment [4]. Besides, the “Intrinsic Activity (%)” value in experiment [2] was 83%. The same compound showed an EC50 in experiment [2] (setting [5]) of 1000 nM.

On to `Oc1cc2c(cc1O)[C@H]1c3cc(-c4cccs4)sc3CN[C@@H]1CC2` (relative stereo) [Example 37, trans-2-(2-Thiophenyl)-4,5,5a,6,7,11b-hexahydro-3-thia-5-aza-cyclopent-1-ena[c]phenanthrene-9,10-diol hydrobromide], for which the Ki was 3190 nM in experiment [1] and 710 nM in experiment [4]. Besides, the “Intrinsic Activity (%)” value in experiment [2] was 65%. In experiment [2] (setting [5]), this compound had an EC50 of 332 nM.

In the case of `Oc1cc2c(cc1O)[C@H]1c3sc(C(F)(F)F)nc3CN[C@@H]1CC2` (relative stereo) [Example 28, trans-2-Trifluoromethyl-4,5,5a,6,7, 11b-hexahydro-1-thia-3,5-diaza-cyclopent-2-ena[c]phenanthrene-9,10-diol], the Ki was above 5000 nM in experiment [1] and 52 nM in experiment [4]. The “Intrinsic Activity (%)” value in experiment [2] came out at 77%. This compound showed an EC50 in experiment [2] (setting [5]) of 202 nM. Moreover, in experiment [3], the ED50 is 0.4 µmol/kg.

As to `CCc1cc2c(s1)CN[C@H]1CCc3cc(O)c(O)cc3[C@H]21` (relative stereo) [Example 3, trans-2-ethyl-4,5,5a,6,7,11b-hexahydro-3-thia-5-aza-cyclopent-1-ena[c]phenanthrene-9,10-diol hydrobromide], the ED50 in experiment [3] came out at 0.077 µmol/kg.

For `Cc1cc2c(s1)CN[C@H]1CCc3cc(O)c(O)cc3[C@H]21` (relative stereo) [Example 22, trans-2-methyl-4,5,5a,6,7,11b-hexahydro-3-thia-5-aza-cyclopent-1-ena[c]phenanthrene-9,10-diol hydrobromide], the ED50 in experiment [3] came to 0.2 µmol/kg.

Consider `CCCc1nc2c(s1)[C@H]1c3cc(O)c(O)cc3CC[C@@H]1NC2` (relative stereo) [Example 27, trans-2-propyl-4,5,5a,6,7,11b-hexahydro-1-thia-3,5-diaza-cyclopent-2-ena[c]phenanthrene-9,10-diol dihydrobromide], for which the Ki is 210 nM in experiment [1] and 11 nM in experiment [4]. In addition, in experiment [2], the “Intrinsic Activity (%)” value was found to be 93%. Also, the EC50 in experiment [2] (setting [5]) was found to be 120 nM. Moreover, the ED50 in experiment [3] is above 1 µmol/kg.

Consider `CCCc1csc2c1CN[C@@H]1CCc3cc(O)c(O)cc3[C@@H]21` (relative stereo) [Example 52, trans-3-propyl-4,5,5a,6,7,11b-hexahydro-1-thia-5-aza-cyclopent-2-ena[c]phenanthrene-9,10-diol hydrochloride], for which the ED50 in experiment [3] worked out at 0.32 µmol/kg.

For the compound `CCCCCCc1cc2c(s1)CN[C@@H]1CCc3cc(O)c(O)cc3[C@@H]21` (relative stereo) [Example 38, trans-2-Hexyl-4,5,5a,6,7,11b-hexahydro-3-thia-5-aza-cyclopent-1-ena[c]phenanthrene-9,10-diol TFA salt], the Ki in experiment [1] came to 2580 nM; in experiment [4], 1430 nM. Also, the “Intrinsic Activity (%)” value in experiment [2] came out at 58%. The same compound had an EC50 in experiment [2] (setting [5]) of 285 nM.

Consider `CCCc1nc2c(o1)[C@@H]1c3cc(O)c(O)cc3CC[C@H]1NC2` (relative stereo) [Example 29, trans-2-Propyl-4,5,5a,6,7,11b-hexahydro-1-oxa-3,5-diaza-cyclopent-2-ena[c]phenanthrene-9,10-diol dihydrobromide], for which, in experiment [2], the EC50 turned out to be 28 nM and the “Intrinsic Activity (%)” value is 81%. The ED50 in experiment [3] was found to be 0.41 µmol/kg.

For `Oc1cc2c(cc1O)[C@H]1c3cc(CC4CCCC4)sc3CN[C@@H]1CC2` (relative stereo) [Example 39, trans-2-(Cyclopentylmethyl)-4,5,5a,6,7,11b-hexahydro-3-thia-5-aza-cyclopent-1-ena[c]phenanthrene-9,10-diol hydrobromide], the Ki came to 1620 nM in experiment [1] and 450 nM in experiment [4]. In experiment [2], the “Intrinsic Activity (%)” value was 93%. Further, in experiment [2] (setting [5]), the EC50 was found to be 110 nM.

As for `Cc1cc2c(s1)CN[C@H]1CCc3cc(O)c(O)cc3[C@H]21` (single isomer, unassigned) [Example 23, (-)-trans-2-Methyl-4,5,5a,6,7,11b-hexahydro-3-thia-5-aza-cyclopent-1-ena[c]-phenanthrene-9,10-diol], the ED50 in experiment [3] came out at 0.05 µmol/kg.

Turning to `CC(C)c1cc2c(s1)[C@@H]1c3cc(O)c(O)cc3CC[C@H]1NC2` (relative stereo) [Example 34, trans-2-Isopropyl-4,5,5a,6,7,11b-hexahydro-1-thia-5-aza-cyclopent-2-ena[c]phenanthrene-9,10-diol trifluoroacetate salt], the Ki in experiment [1] was 420 nM. Further, in experiment [2], a half-maximal effect (EC50) was put at 16 nM and the “Intrinsic Activity (%)” value is on record as 80%. Moreover, the ED50 in experiment [3] is 0.04 µmol/kg. For the same compound, the Ki in experiment [4] was determined as 4 nM.

In the case of `CC(C)(C)c1cc2c(s1)CN[C@H]1CCc3cc(O)c(O)cc3[C@H]21` (relative stereo) [Example 6, trans-2-(1,1-dimethylethyl)-4,5,5a,6,7,11b-hexahydro-3-thia-5-aza-cyclopent-1-ena[c]phenanthrene-9,10-diol hydrobromide], the ED50 in experiment [3] came out at 0.12 µmol/kg.

As to `CCc1cc2c(o1)[C@@H]1c3cc(O)c(O)cc3CC[C@H]1NC2` (relative stereo) [Example 55, trans-2-ethyl-4,5,5a,6,7,11b-hexahydro-1-oxa-5-aza-cyclopent-2-ena[c]phenanthrene-9,10-diol hydrochloride], the Ki in experiment [1] was 368 nM. Further, in experiment [2], the EC50 is 64 nM and the “Intrinsic Activity (%)” value is on record as 92%. In addition, the ED50 in experiment [3] worked out at 0.17 µmol/kg. In experiment [4], this compound came in with an inhibition constant Ki of 10 nM.

`CCc1cc2c(s1)CN[C@H]1CCc3cc(O)c(O)cc3[C@H]21` (single isomer, unassigned) [Example 4, (-)-trans-2-ethyl-4,5,5a,6,7,11b-hexahydro-3-thia-5-aza-cyclopent-1-ena[c]phenanthrene-9,10-diol hydrobromide]: the ED50 in experiment [3] worked out at 0.04 µmol/kg.

With `Oc1cc2c(cc1O)[C@@H]1c3sc(-c4ccccc4)cc3CN[C@H]1CC2` (relative stereo) [Example 19, trans-2-phenyl-4,5,5a,6,7,11b-hexahydro-1-thia-5-aza-cyclopent-2-ena[c]phenanthrene-9,10-diol hydrobromide], the Ki in experiment [1] was found to be 750 nM. In experiment [2], the response was half-maximal at 25 nM (EC50) and the “Intrinsic Activity (%)” value is reported as 79%. Besides, the Ki in experiment [4] amounted to 360 nM.

In the case of `CCCc1cc2c(s1)CN[C@H]1CCc3cc(O)c(O)cc3[C@H]21` (relative stereo) [Example 5, trans-2-propyl-4,5,5a,6,7,11b-hexahydro-3-thia-5-aza-cyclopent-1-ena[c]phenanthrene-9,10-diol hydrobromide], the ED50 in experiment [3] amounted to 0.15 µmol/kg.

Take `Oc1cc2c(cc1O)[C@H]1c3cc(-c4ccccc4)oc3CN[C@@H]1CC2` (relative stereo) [Example 42, trans-2-Phenyl-4,5,5a,6,7,11b-hexahydro-3-oxa-5-aza-cyclopent-1-ena[c]phenanthrene-9,10-diol hydrochloride]: the Ki in experiment [1] worked out at 640 nM. For the same compound, in experiment [2], the EC50 amounted to 78 nM and the “Intrinsic Activity (%)” value amounted to 59%. Further, the affinity in experiment [4], expressed as Ki, was 453 nM.

As for `CCCc1cc2c(s1)CNC1CCc3cc(OC(C)=O)c(OC(C)=O)cc3C21` (single isomer, unassigned; (-)) [Example 48, (-)-trans-9,10-Diacetyloxy-2-propyl-4,5,5a,6,7,11b-hexahydro-3-thia-5-aza-cyclopent-1-ena[c]phenanthrene hydrochloride], in experiment [3], the ED50 is 0.04 µmol/kg.

In the case of `CCCc1cc2c(s1)CN[C@H]1CCc3cc(O)c(O)cc3[C@H]21` (single isomer, unassigned) [Example 20, (-)-trans-2-propyl-4,5,5a,6,7,11b-hexahydro-3-thia-5-aza-cyclopent-1-ena[c]phenanthrene-9,10-diol hydrobromide], the ED50 in experiment [3] was determined as 0.11 µmol/kg.

On to `Cc1ccc(-c2cc3c(s2)CNC2CCc4cc(O)c(O)cc4C32)cc1` (stereo not drawn) [Example 46, 2-(4-Methylphenyl)-4,5,5a,6,7,11b-hexahydro-3-thia-5-aza-cyclopent-1-ena[c]phenanthrene-9,10-diol hydrobromide], for which the Ki in experiment [1] and in experiment [4] was above 5000 nM in each case.

Broadly, the Ki is a measure of affinity in units of concentration, obtained from inhibition or displacement. In general, EC50 refers to the concentration at which the effect is half-maximal. A high value points to lower potency in that assay.

The values above are taken from patent publication US5597832A (Abbott Laboratories, priority 1994, dated 1997).
